Tests used:
Assay type in all cases: binding
[1] = target: T1, AbFtsZ (A. baumannii FtsZ) (Acinetobacter baumannii, UniProt V5V8B6); assay: fluorescence anisotropy titration; also inhibits GTP-dependent polymerization (light scattering)
BauA = BauA (Acinetobacter baumannii, UniProt Q76HJ9); assay: fluorescence anisotropy titration of the RUP7_2-Fe3+ complex with purified BauA
[2] = target: T1, AbFtsZ (A. baumannii FtsZ); assay: fluorescence anisotropy titration of RUP2 with purified AbFtsZ

T1 sequence (V5V8B6 entry or part of it): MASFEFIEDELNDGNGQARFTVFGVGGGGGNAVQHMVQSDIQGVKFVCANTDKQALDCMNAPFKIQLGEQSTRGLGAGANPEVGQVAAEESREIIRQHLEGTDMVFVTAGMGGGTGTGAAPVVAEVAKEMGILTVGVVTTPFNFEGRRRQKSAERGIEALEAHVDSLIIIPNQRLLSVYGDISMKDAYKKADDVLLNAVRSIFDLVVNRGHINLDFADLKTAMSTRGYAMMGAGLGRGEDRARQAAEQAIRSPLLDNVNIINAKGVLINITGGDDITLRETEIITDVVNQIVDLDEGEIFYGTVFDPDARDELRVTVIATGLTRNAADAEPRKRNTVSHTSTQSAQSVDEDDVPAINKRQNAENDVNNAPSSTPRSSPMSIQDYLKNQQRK
Chain of BauA (Q76HJ9 entry or part of it): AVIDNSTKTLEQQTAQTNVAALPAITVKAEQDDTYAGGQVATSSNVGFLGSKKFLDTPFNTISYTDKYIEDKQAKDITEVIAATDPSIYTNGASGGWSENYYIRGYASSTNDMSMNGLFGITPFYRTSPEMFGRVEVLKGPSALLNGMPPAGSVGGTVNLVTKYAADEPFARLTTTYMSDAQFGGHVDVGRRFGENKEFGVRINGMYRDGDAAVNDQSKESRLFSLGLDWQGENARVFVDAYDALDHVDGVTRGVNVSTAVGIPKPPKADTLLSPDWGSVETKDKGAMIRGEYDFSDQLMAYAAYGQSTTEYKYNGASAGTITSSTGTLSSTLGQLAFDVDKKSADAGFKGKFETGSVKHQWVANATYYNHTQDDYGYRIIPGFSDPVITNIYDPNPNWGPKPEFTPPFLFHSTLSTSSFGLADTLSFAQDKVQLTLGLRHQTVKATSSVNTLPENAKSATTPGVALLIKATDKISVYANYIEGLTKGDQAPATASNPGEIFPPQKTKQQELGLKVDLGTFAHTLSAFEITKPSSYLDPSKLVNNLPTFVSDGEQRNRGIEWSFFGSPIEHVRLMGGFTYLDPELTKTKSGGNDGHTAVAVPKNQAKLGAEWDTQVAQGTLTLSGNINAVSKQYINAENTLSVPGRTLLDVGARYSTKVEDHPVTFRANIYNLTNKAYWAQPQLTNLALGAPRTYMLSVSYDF

SMILES	Kd [1] [nM]	Kd (BauA) [nM]	Kd [2] [nM]
C[C@@H]1ON(CCc2cn(CCC(Oc3ccc(F)c(C(N)=O)c3F)c3nc(-c4ccc(C(F)(F)F)cc4)c(Br)o3)cn2)C(=O)[C@H]1NC(=O)c1cccc(O)c1O (stereo partly drawn) [RUP7]	26500 ± 3700	1800 ± 400	–
NC(=O)c1c(F)ccc(OC(CCO)c2nc(-c3ccc(C(F)(F)F)cc3)c(Br)o2)c1F (stereo not drawn) [RUP2]	–	–	230 ± 90
